Measurements reported in US9573913B2, “Cathepsin cysteine protease inhibitors” (Merck Sharp & Dohme Corp., priority 2013, dated 2017).

Experiments:
human cathepsin K = human cathepsin K (UniProt P43236); assay: Cathepsin K Assay (hrbCat K); format: biochemical; settings: Z-Leu-Arg-AMC substrate, pH 5.5, 15 min preincubation; read-out: hrbCat K (IP (nM))
Description: Cathepsin K Assay (hrbCat K)
(§1) Then 0.5 μL of DMSO from each dilution were added to 18.75 μL of assay buffer (MES, 50 mM (pH 5.5); EDTA, 2.5 mM; DTT, 2.5 mM and 10% DMSO) containing human cathepsin K (0.4 nM) in assay buffer solution. The assay solutions were mixed for 5-10 seconds on a shaker plate and incubated for 15 minutes at room temperature. Z-Leu-Arg-AMC (8 μM) in 6.25 μL of assay buffer was added to the assay solutions. Hydrolysis of the coumarin leaving group (AMC) was followed by spectrofluorometry (Exλ=360 nm; Emλ=460 nm) for 30 minutes. Percent of inhibition were calculated by fitting experimental values to standard mathematical model for dose response curve.

human cathepsin F = biological target: T1, human cathepsin F (Homo sapiens, UniProt Q9UBX1); assay: Cathepsin F assay (hCat F); format: biochemical; settings: Z-Phe-Arg-AMC substrate, pH 5.5, 15 min preincubation; read-out: hCat F (IP (nM))
T1 sequence (Q9UBX1 271-484): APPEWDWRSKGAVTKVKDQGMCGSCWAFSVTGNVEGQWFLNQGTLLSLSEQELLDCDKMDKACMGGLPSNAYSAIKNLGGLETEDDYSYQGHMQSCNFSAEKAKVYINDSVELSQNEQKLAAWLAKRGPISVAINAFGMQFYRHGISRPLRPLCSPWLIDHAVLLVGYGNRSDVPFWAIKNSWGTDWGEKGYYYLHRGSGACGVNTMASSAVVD
Description: Cathepsin F assay (hCat F)
as §1, with “Serial dilutions (1/3) from 500 μM down to 0.025 μM of test compounds were prepared in dimethyl sulfoxide (DMSO). Then” for “Then”, “F (10” for “K (0.4”, “Z-Phe-Arg-AMC” for “Z-Leu-Arg-AMC”, “20” for “30”

IC50 (human cathepsin K)	IC50 (human cathepsin F)	Compound
2.8 nM	3330 nM	CC(Oc1ncccc1-c1nc([C@@H]2CCCC[C@H]2C(=O)NC2(C#N)CC2)c(-c2ccc(N3CCS(=O)(=O)CC3)cc2)s1)C(F)(F)F (mixture of isomers) [Example 134, (1R,2R)-N-(1-cyanocyclopropyl)-2-(5-(4-(1,1-dioxidothiomorpho-lino)phenyl)-2-(2-(((S and R)-1,1,1-trifluoropropan-2-yl)oxy)pyridin-3-yl)thiazol-4-yl)cyclohexane-carboxamide]
1.2 nM	3330 nM	CC(Oc1ccc(-c2nc([C@@H]3CCCC[C@H]3C(=O)NC3(C#N)CC3)c(-c3ccc(N4CCS(=O)(=O)CC4)cc3)s2)cn1)C(F)(F)F (mixture of isomers) [Example 137, (1R,2R)-N-(1-cyanocyclopropyl)-2-(5-(4-(1,1-dioxidothiomorpho-lino)phenyl)-2-(6-(((S and R)-1,1,1-trifluoropropan-2-yl)oxy)pyridin-3-yl)thiazol-4-yl)cyclohexane-carboxamide]
4.5 nM	1000 nM	N#CC1(NC(=O)[C@@H]2CCCC[C@H]2c2nc(C3CCOC3)sc2-c2ccc(N3CCS(=O)(=O)CC3)cc2)CC1 (mixture of isomers) [Example 147, (1R,2R)-N-(1-cyanocyclopropyl)-2-(5-(4-(1,1-dioxidothiomorpho-lino)phenyl)-2-((R and S)-tetrahydrofuran-3-yl)thiazol-4-yl)cyclohexane-carboxamide]
2.6 nM	1930 nM	N#CC1(NC(=O)[C@@H]2CCCC[C@H]2c2nc(C3CCCCO3)sc2-c2ccc(N3CCS(=O)(=O)CC3)cc2)CC1 (mixture of isomers) [Example 148, (1R,2R)-N-(1-cyanocyclopropyl)-2-(5-(4-(1,1-dioxidothiomorpho-lino)phenyl)-2-((R and S)-tetrahydro-2H-pyran-2-yl)thiazol-4-yl)cyclohexane-carboxamide]
4.5 nM	1000 nM	N#CC1(NC(=O)[C@@H]2CCCC[C@H]2c2nc(C3CCC(F)(F)C3)sc2-c2ccc(N3CCS(=O)(=O)CC3)cc2)CC1 (mixture of isomers) [Example 154, (1R,2R)-N-(1-cyanocyclopropyl)-2-(2-((R and S)-3,3-difluorocyclopentyl)-5-(4-(1,1-dioxidothiomorpho-lino)phenyl)thiazol-4-yl)cyclohexane-carboxamide]
2.7 nM	49 nM	CS(=O)(=O)c1ccc(-c2oc(-c3ccccc3)nc2C2CCC(F)(F)CC2C(=O)NCC#N)cc1 (racemic) [Example 162, (1R,2R and 1S,2S)-N-(cyanomethyl)-5,5-difluoro-2-(5-(4-(methylsulfonyl)phenyl)-2-phenyloxazol-4-yl)cyclohexane-carboxamide]
2.9 nM	26 nM	CS(=O)(=O)c1ccc(-c2oc(-c3ccc(F)cc3)nc2C2CCC(F)(F)CC2C(=O)NCC#N)cc1 (racemic) [Example 163, (1R,2R and 1S,2S)-N-(cyanomethyl)-5,5-difluoro-2-(2-(4-fluorophenyl)-5-(4-(methylsulfonyl)phenyl)oxazol-4-yl)cyclohexane-carboxamide]
2.4 nM	60 nM	N#CC(NC(=O)[C@@H]1CCCC[C@H]1c1nc(-c2ccc(F)cn2)sc1-c1ccc(N2CCS(=O)(=O)CC2)cc1)C(F)(F)F (mixture of isomers) [Example 215, (1R,2R)-N-((S and R)-1-cyano-2,2,2-trifluoroethyl)-2-(5-(4-(1,1-dioxidothiomorpho-lino)phenyl)-2-(5-fluoropyridin-2-yl)thiazol-4-yl)cyclohexane-carboxamide]
5.1 nM	5390 nM	N#CC1(NC(=O)[C@@H]2CCCC[C@H]2c2nc(C(O)C(F)(F)F)sc2-c2ccc(N3CCS(=O)(=O)CC3)cc2)CC1 (mixture of isomers) [Example 228, (1R,2R)-N-(1-cyanocyclopropyl)-2-(5-(4-(1,1-dioxidothiomorpho-lino)phenyl)-2-((R and S)-2,2,2-trifluoro-1-hydroxyethyl)thia-zol-4-yl)cyclohexane-carboxamide]
2.6 nM	757 nM	C[C@@H](C#N)NC(=O)[C@@H]1CCCC[C@H]1c1nc(C(O)C(F)(F)F)sc1-c1ccc(N2CCS(=O)(=O)CC2)cc1 (mixture of isomers) [Example 229, (1R,2R)-N-((S)-1-cyanoethyl)-2-(5-(4-(1,1-dioxidothiomorpho-lino)phenyl)-2-((R and S)-2,2,2-trifluoro-1-hydroxyethyl)thia-zol-4-yl)cyclohexane-carboxamide]
5.4 nM	3280 nM	Cc1nc(C2CCCCC2C(=O)NCC#N)c(-c2ccc(N3CCS(=O)(=O)CC3)cc2)s1 (racemic) [Example 245, N-(cyanomethyl)-2-(5-(4-(1,1-dioxidothiomorpho-lino)phenyl)-2-methylthiazol-4-yl)cyclohexane-carboxamide]
38.2 nM	> 10000 nM	Cc1nc(C2CCCCC2C(=O)NCC#N)c(-c2ccc(C(=O)N3CCOCC3)cc2)s1 (racemic) [Example 246, N-(cyanomethyl)-2-(2-methyl-5-(4-(morpholine-4-carbonyl)phenyl)thi-azol-4-yl)cyclohexane-carboxamide]
161 nM		CC1CC1(C#N)NC(=O)[C@@H]1CCCC[C@H]1c1nc(-c2ccc(F)cn2)sc1-c1ccc(N2CCS(=O)(=O)CC2)cc1 (single isomer, unassigned) [Example 203, (1R,2R)-N-((1R,2S or 1R,2R or 1S,2S or 1S,2R)-1-cyano-2-methylcyclopropyl)-2-(5-(4-(1,1-dioxidothiomorpho-lino)phenyl)-2-(5-fluoropyridin-2-yl)thiazol-4-yl)cyclohexane-carboxamide]
	≥ 10000 nM	CC(C)(O)C(C#N)NC(=O)[C@@H]1CCCC[C@H]1c1nc(-c2ccc(F)cn2)sc1-c1ccc(N2CCS(=O)(=O)CC2)cc1 (single isomer, unassigned) [Example 226, (1R,2R)-N-((S or R)-1-cyano-2-hydroxy-2-methylpropyl)-2-(5-(4-(1,1-dioxidothiomorpho-lino)phenyl)-2-(5-fluoropyridin-2-yl)thiazol-4-yl)cyclohexane-carboxamide]
59.5 nM		CC(C)(O)C(C#N)NC(=O)[C@@H]1CCCC[C@H]1c1nc(-c2ccc(F)cn2)sc1-c1ccc(N2CCS(=O)(=O)CC2)cc1 (single isomer, unassigned) [Example 227, (1R,2R)-N-((R or S)-1-cyano-2-hydroxy-2-methylpropyl)-2-(5-(4-(1,1-dioxidothiomorpho-lino)phenyl)-2-(5-fluoropyridin-2-yl)thiazol-4-yl)cyclohexane-carboxamide]
4.2 nM		N#CC1(NC(=O)[C@@H]2C[C@@H](F)CC[C@H]2c2nc(C3CC(F)C3)sc2-c2ccc(N3CCS(=O)(=O)CC3)cc2)CC1 (single isomer, unassigned) [Example 235, (1R,2R,5S)-N-(1-cyanocyclopropyl)-2-(5-(4-(1,1-dioxidothiomorpho-lino)phenyl)-2-((1R,3R or 1S,3S)-3-fluorocyclobutyl)thiazol-4-yl)-5-fluorocyclohexane-carboxamide]
1.7 nM		N#CC1(NC(=O)[C@@H]2CCC(F)(F)C[C@H]2c2nc(-c3cncc(F)c3)sc2-c2ccc(N3CCS(=O)(=O)CC3)cc2)CC1 [Example 108, (1R,2R)-N-(1-cyanocyclopropyl)-2-(5-(4-(1,1-dioxidothiomorpho-lino)phenyl)-2-(5-fluoropyridin-3-yl)thiazol-4-yl)-4,4-difluorocyclohexane-carboxamide]
66.7 nM		CC(C)(C#N)NC(=O)[C@@H]1C[C@@H](F)CC[C@H]1c1nc(-c2ccc(F)cn2)sc1-c1ccc(N2CCS(=O)(=O)CC2)cc1 [Example 140, (1R,2R,5S)-N-(2-cyanopropan-2-yl)-2-(5-(4-(1,1-dioxidothiomorpho-lino)phenyl)-2-(5-fluoropyridin-2-yl)thiazol-4-yl)-5-fluorocyclohexane-carboxamide]
4.2 nM		N#CC1(NC(=O)[C@@H]2CCC(F)(F)C[C@H]2c2nc(-c3cncc(F)c3)sc2-c2ccc(N3CCS(=O)(=O)CC3)cc2)CC1 [Example 218, (1R,2R)-N-(1-cyanocyclopropyl)-2-(5-(4-(1,1-dioxidothiomorpho-lino)phenyl)-2-(5-fluoropyridin-3-yl)thiazol-4-yl)-4,4-difluorocyclohexane-carboxamide]

Compound	IC50 (human cathepsin K)	IC50 (human cathepsin F)
Cc1ncc(-c2nc([C@@H]3CCCC[C@H]3C(=O)NC3(C#N)CC3)c(-c3ccc(N4CCS(=O)(=O)CC4)cc3)s2)s1 [Example 52, (1R,2R)-N-(1-cyanocyclopropyl)-2-(5-(4-(1,1-dioxidothiomorpho-lino)phenyl)-2′-methyl-[2,5′-bithiazol]-4-yl)cyclohexane-carboxamide]	2.3 nM	
